For nine compounds, TGI results are on record in PubChem BioAssay (NCI).

Test in all cases: NCI tumour cell line growth inhibition, 48 h
For assay [1], the system named is HS 578T breast.
The test system of assay [2] is MDA-MB-435.
Assay [3] deals with SK-OV-3 ovarian.
Assay [4] deals with LOX IMVI melanoma.
The subject of assay [5] is MALME-3M melanoma.
In assay [6] the test system is HOP-92 NSCLC.
Assay [7] deals with OVCAR-5 ovarian.
The subject of assay [8] is RPMI-8226 leukemia.
Assay [9] has as its system T-47D breast.
Assay [10] relates to HOP-62 NSCLC.
In assay [11] the test system is U251 CNS.
The test system of assay [12] is ACHN renal.
Assay [13] concerns UACC-257 melanoma.
Assay [14] deals with K-562 leukemia.
Assay [15] relates to SK-MEL-28 melanoma.
Assay [16] relates to EKVX NSCLC.

Structures are written as SMILES.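 Test compounds were applied to cells in 96-well plates for 48 hours at 5 doses. The concentration for full growth arrest is given as TGI.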

`COC(=N)c1ncn(Cc2ccccc2)c1N`: the TGI in assay [1], in assay [2], in [3], in [4], in [5] and in [6] was more than 100 µM each time. Besides, the TGI in assay [7], in assay [8], in assay [9], in assay [10], in assay [11] and in assay [12] was more than 100 µM in each case. The TGI in [13], in assay [14], in assay [15] and in assay [16] was more than 100 µM in each case.

`CCCC1=NC(C(F)(F)F)(C(F)(F)F)N=C(N2CCOCC2)O1`: the TGI in [1], in assay [2], in [3], in assay [4], in assay [5] and in assay [6] was more than 100 µM each time. The TGI in [7], in assay [8], in assay [9], in [10], in assay [11] and in [13] was more than 100 µM throughout. The TGI in assay [14], in [15] and in assay [16] was more than 100 µM each time.

Consider `CC(C)CC(NC=O)C(=O)NC(Cc1ccccc1)NC(=O)CNC(=O)C(C)NC(=O)OC(C)(C)C` (configuration not stated), for which the TGI in assay [1], in [2], in assay [3], in [4], in assay [5] and in assay [6] was more than 100 µM throughout. In addition, the TGI in assay [7], in [8], in [9], in [10], in [11] and in assay [12] was more than 100 µM in each case. In addition, the TGI in [14], in [15] and in [16] was more than 100 µM throughout.

Regarding `N=c1oc2ccc([N+](=O)[O-])cc2cc1C(=O)Nc1ccccn1`, the TGI in assay [1] is 78.5 µM; in assay [2], more than 100 µM; in assay [3], more than 100 µM; in assay [4], more than 100 µM; in [5], 77.6 µM; in [6], more than 100 µM. Further, the TGI in assay [7], in assay [8], in [9], in assay [10], in assay [11] and in [12] was more than 100 µM each time. Also, the TGI in assay [13], in assay [14], in [15] and in [16] was more than 100 µM throughout.

Take `S=C1NCCN1C(=S)NC1CCCCC1`: the TGI in assay [1] is 99.2 µM; in [2] it was 67.6 µM; in assay [3], more than 100 µM; in assay [4] it was more than 100 µM; in assay [5] it was 64.9 µM; in assay [6], 66.2 µM. The TGI in assay [7], in assay [8], in assay [9], in assay [10], in [11] and in [12] was more than 100 µM each time. Further, the TGI in [13] was 63.3 µM; in assay [14] it was more than 100 µM; in assay [15], more than 100 µM; in assay [16], more than 100 µM.

Turning to `CC(=O)[C@H]1[C@@H](OCc2ccccc2)O[N+]([O-])=C(C)[C@@H]1c1ccccc1`, the TGI in assay [1] is 72.4 µM; in [2] it was more than 100 µM; in assay [3] it was more than 100 µM; in assay [4], 45.7 µM; in [5], 47 µM; in assay [6] it was 62.4 µM. Moreover, the TGI was more than 100 µM in assay [7]; 37.9 µM in assay [8]; 58.1 µM in [9]; more than 100 µM in assay [10]; more than 100 µM in [11]; 78.4 µM in [12]. The TGI in assay [13] was more than 100 µM; in assay [14] it was 38 µM; in [15], 98.4 µM; in [16], more than 100 µM.

Consider `O=C(O)c1cccc(S(=O)(=O)NN2C(=O)CSC2c2ccccc2Cl)c1` (configuration not stated), for which the TGI in assay [1], in [2], in assay [3], in assay [4], in assay [5] and in [6] was more than 100 µM each time. The TGI in assay [7], in [8], in assay [9], in [10], in [11] and in assay [12] was more than 100 µM in each case. Also, the TGI in [13], in [14], in assay [15] and in assay [16] was more than 100 µM throughout.

Regarding `Cc1ccc(C)c(NC(=O)/C(=N\N)C(c2cnc3ccc([N+](=O)[O-])cc3n2)[N+](=O)[O-])c1` (configuration not stated), the TGI in assay [1], in [2], in assay [3], in assay [4], in assay [5] and in assay [6] was more than 100 µM in each case. The TGI in assay [7] is more than 100 µM; in assay [8], more than 100 µM; in assay [9], more than 100 µM; in assay [10] it was more than 100 µM; in assay [11] it was more than 100 µM; in assay [12] it was 40.1 µM. Also, the TGI in assay [13], in assay [14], in assay [15] and in assay [16] was more than 100 µM throughout.

Take `C[C@]12CC[C@H]3[C@@H](CC=C4C[C@@H](O)CC[C@@]43C)[C@@H]1C[C@H](N1CCOCC1)[C@@H]2O`: the TGI in [1], in assay [2], in assay [3], in assay [4], in [5] and in assay [6] was more than 100 µM throughout. Also, the TGI in assay [7], in assay [8], in assay [9], in assay [10], in assay [11] and in assay [12] was more than 100 µM in each case. The TGI in assay [13], in assay [14], in assay [15] and in [16] was more than 100 µM throughout.
